In paper PMC10076643, “Design, synthesis and anticancer activity studies of 3-(coumarin-3-yl)-acrolein derivatives: Evidenced by integrating network pharmacology and vitro assay” (Frontiers in Pharmacology, 2023):

What was measured:
[1] = tested on: KB (human oral epidermoid carcinoma cell line); assay: MTT antiproliferative assay, KB; type: cell-based
From the text: (§1) All the synthesized compounds were screened for in vitro antiproliferative activity against four human cancer cell lines A549 (human lung cancer cell line), KB (human oral epidermoid carcinoma cell line), Hela (human cervical carcinoma cell line), MCF-7 (human breast cancer cell line) and two human normal cell lines HUVEC (human umbilical vein endothelial cell) and LO2 (human normal hepatocytes) through the 3-(4,5-dimethyl-2-thiazolyl)-2,5-diphenyl-2-H-tetrazolium bromide (MTT) assay.
(§2) Non-small-cell lung cancer (A549), oral epidermoid carcinoma (KB), cervical cancer (Hela) and breast cancer (MCF-7) cells were purchased from the American Type Culture Collection (ATCC, America). Human umbilical vein endothelial cell (HUVEC) and human normal hepatocytes (LO2) cells were provided by Guangzhou Medical University (Guangzhou, China). A549 and KB cells were cultured in RMPI-1640 medium (Gibco, America). Hela, MCF-7 and LO2 cells were cultured in DMEM medium (Gibco, America). HUVEC cells were cultured in Ham’s F-12K medium (Gibco, America). All the mediums were supplemented with 10% fetal bovine serum (FBS) (BI, State of Israel), 100 U/mL penicillin and 100 μg/mL streptomycin (Gibco, America), and all the cells were incubated in a sterile incubator at 37°C in an environment of 5% CO2. The tested compounds were dissolved in dimethyl sulfoxide (DMSO) at a concentration of 10 mM, and then diluted into different concentration of solutions by culture medium. The final concentration of DMSO was <0.01% (v/v) in all drug treatment groups to avoid the toxicity in the biological system. Untreated cells were used as a blank control and 5-fluorouracil treated cells were used as a positive control.
(§3) The incubated tumor cells were planted into 96-well plates (4×10^3 cells/well). After 24 h, the cells were adherent to the wall and treated with the compound 6e in different concentrations (0.78, 1.56, 3.12, 6.25, 12.50, 25.00, and 50.00 μM) for 72 h. Afterwards, the medium was supplemented with 10 µL MTT solution. After 4 h, the culture medium was removed and 100 µL DMSO was added. The absorbance was determined at the wavelength of 540 nm and 655 nm using a microplate reader (BioTek Epoch, America). The results were collected from three independent experiments. The IC50 was then calculated by using GraphPad Prism Software (version 7.0) and non-linear regression (curve fit).

[2] = tested on: MCF-7 (human breast cancer cell line); assay: MTT antiproliferative assay, MCF-7; type: cell-based; settings: MCF7, 72 h
From the text: as §1, §2, §3

[3] = tested on: LO2 (human normal hepatocytes); assay: MTT antiproliferative assay, LO2 normal cells; type: cell-based; settings: Hepatocyte, 72 h
From the text: as §1, §2, §3

caspase-3 in KB cells = assay: Western blot, caspase-3; type: cell-based, human; settings: 24 h
From the text: (§4) Based on the results of network pharmacology, the key proteins related to PI3K/AKT pathway were detected by Western blotting to explore the antitumor mechanism of compound 6e. […] Such an inconsistency might be due to a compensatory increase in PI3K level after the reduction of AKT phosphorylation level. Additionally, the active-caspase 3 protein, anti-apoptosis protein Bcl-2 and pro-apoptosis protein Bax were further analyzed. Caspase-3 normally exists in the cytoplasm as zymogen. During the early stage of apoptosis, caspase-3 (32 KD) is cleaved to the active 17-kD caspase-3 fragment, which is responsible for morphological and biochemical changes in apoptosis. Bcl-2 and Bax are the […] located on the mitochondrial membrane and capable of controlling the MMP (ΔΨm) and the activation of caspase cascade.
(§5) A total of 4 × 10^5 KB cells were seeded into 6-well and grown for overnight. Then the cells adherent to the wall were treated with compound 6e in different concentrations (0, 0.40, 0.80, 1.60 μM) for 24 h. After that, cells were collected, SDS lysate, 100X protease inhibitor and 50X phosphorylation inhibitor were added in a certain proportion to lyse the cells. The protein content was determined by BCA reagent (Beyotime, China) according to the standard curve. […]

Bcl-2 in KB cells = assay: Western blot, Bcl-2; type: cell-based, human; settings: 0.40 μM, 24 h
From the text: as §4, §5

- IC50 ([1]; Homo sapiens, MTT, 72 h): 390 ± 70 nM
- IC50 against KB cells lower than that of HUVECs (selectivity) ([1]; KB vs HUVEC): 65 fold
- IC50 [2]: 14.8 ± 0.28 µM
- melting point: 223 to 225 °C
Compound: O=CC=C(Cl)c1cc2ccc(OCc3ccccc3)cc2oc1=O [Compound 6e, 3-(7-(Benzyloxy)-2-oxo-2H-chromen-3-yl)-3-chloroacrylaldehyde]
- antiproliferative activity higher than 5-FU ([1]; KB cells, relative to 5-FU): 15 fold
- IC50 against KB cells lower than that of LO2 cells (selectivity) ([1]; KB vs LO2): 129 fold
- IC50 [3]: 50.13 ± 0.03 µM
- ratio of cleaved caspase-3 to caspase-3 (caspase-3 in KB cells; 0.80 μM): increased
- expression of the cleaved 17-kD caspase-3 (caspase-3 in KB cells; 1.60 μM): upregulated
- expression of Bcl-2 compared with the control group (Bcl-2 in KB cells): visibly decreased
- proportion of Bcl-2 to Bax (Bcl-2 in KB cells): decrease
